Laboratory results: article PMC6219668 (Oncotarget, 2018)
Where two headings read alike, the source gives them in different places.

Tests used:
MCF-7 = assay: cells; type: cell-based; settings: Homo sapiens, MCF7; MCF-7, ER+ BC, dominant CDK4; read-out: IC50, mean ± SD
REH = assay: cells; type: cell-based; settings: Homo sapiens, ALL, dominant CDK6, read-out: IC50, mean ± SD
CAMA-1 = assay: cells; type: cell-based; settings: Homo sapiens; CAMA-1, ER+ BC, dominant CDK4; read-out: IC50, mean ± SD
WM-115 = assay: cells; type: cell-based; settings: Homo sapiens, WM-115, 72 h
NCI-H1573 = assay: cells; type: cell-based; settings: Homo sapiens, NCI-H1573, 72 h
KYSE150 [1] = assay: cells; type: cell-based; settings: Homo sapiens, KYSE-150; KYSE150, 72 h
NCI-H2030 = assay: cells; type: cell-based; settings: Homo sapiens, NCI-H2030, 72 h
HCC-827 [2] = assay: cells; type: cell-based; settings: Homo sapiens, HCC827; HCC-827, 72 h
MGH049 = assay: cells; type: cell-based; settings: MGH049, 72 h
Hs 944.T = type: in vivo; settings: Melanoma
A549 [3] = assay: cells; type: cell-based; settings: Homo sapiens, A549, 72 h
OE33 [4] = assay: cells; type: cell-based; settings: Homo sapiens, OE33, 72 h
HBCx-3 = type: in vivo; settings: HBCx-3, Breast, TNBC, Rb present; 125 mg/kg bid × 21
NCI-H2228 = assay: cells; type: cell-based; settings: Homo sapiens, NCI-H2228, 72 h
PC-14 = assay: cells; type: cell-based; settings: Homo sapiens, PC-14, 72 h
NCI-H23 [5] = assay: cells; type: cell-based; settings: Homo sapiens, NCI-H23, 72 h
MDA-MB-415 = assay: cells; type: cell-based; settings: Homo sapiens, MDA-MB-415, 72 h
SK-MEL-2 = assay: cells; type: cell-based; settings: Homo sapiens, SK-MEL-2, 72 h
TE-8 = assay: cells; type: cell-based; settings: Homo sapiens, TE-8, 72 h
SK-MEL-5 = assay: cells; type: cell-based; settings: Homo sapiens, SK-MEL-5, 72 h
SK-MEL-28 = assay: cells; type: cell-based; settings: Homo sapiens, SK-MEL-28, 72 h
CDK2/cyclin A = settings: cited from earlier work
HCC-4006 = assay: cells; type: cell-based; settings: Homo sapiens, HCC4006; HCC-4006, 72 h
NCI-H1792 = assay: cells; type: cell-based; settings: Homo sapiens, NCI-H1792, 72 h
SK-N-SH = assay: cells; type: cell-based; settings: Homo sapiens, 72 h
[6] = tested on: JeKo-1 mantle cell lymphoma cells; parameters: method as in Brain C et al, manuscript in preparation; settings: RB1-proficient; ref Brain C et al, manuscript in preparation; cited from earlier work
Pharmacokinetics in mice = type: in vivo; settings: 75 mg/kg once daily, data not shown
NCI-H23 [7] = assay: cells; type: cell-based; settings: Homo sapiens, NCI-H23, 72 h; remark: listed apart in the source
NCI-H2009 = tested on: NCI-H2009; parameters: method as in Brain C et al, manuscript in preparation; settings: RB1-deleted lung adenocarcinoma line; up to 10 μM; ref Brain C et al, manuscript in preparation; cited from earlier work
KELLY = assay: cells; type: cell-based; settings: 72 h
JeKo-1 xenograft = type: in vivo; settings: for tumor response: qd, po
CDK1/cyclin B = settings: cited from earlier work
OE33 [8] = assay: cells; type: cell-based; settings: Homo sapiens, OE33, 72 h; remark: listed apart in the source
SNU-761 = assay: cells; type: cell-based; settings: SNU-761, 72 h
HBRX1004 = type: in vivo; settings: HBRX1004, Breast, TNBC, Rb present; 250 mg/kg qd
HBCx-8 = type: in vivo; settings: HBCx-8, Breast, TNBC, Rb present; 125 mg/kg bid × 21
KYSE30 = assay: cells; type: cell-based; settings: Homo sapiens, KYSE-30; KYSE30, 72 h
NCI-H1975 = assay: cells; type: cell-based; settings: Homo sapiens, NCI-H1975, 72 h
A-375 = assay: cells; type: cell-based; settings: Homo sapiens, A-375, 72 h
KYSE150 [9] = assay: cells; type: cell-based; settings: Homo sapiens, KYSE-150; KYSE150, 72 h; remark: listed apart in the source
A549 [10] = assay: cells; type: cell-based; settings: Homo sapiens, A549, 72 h; remark: listed apart in the source
HCC-827 [11] = assay: cells; type: cell-based; settings: Homo sapiens, HCC827; HCC-827, 72 h; remark: listed apart in the source

**Q.** Which IC50 (MCF-7) does the source give for `CC(=O)c1c(C)c2cnc(Nc3ccc(N4CCNCC4)cn3)nc2n(C2CCCC2)c1=O` [Palbociclib, reference compound] here?
**A.** Its IC50 is 30 ± 18 µM.

**Q.** And the IC50 (REH)?
**A.** Its IC50 is 60 ± 17 µM.

**Q.** What about the IC50 (CAMA-1) of the same compound?
**A.** The IC50 was 50 ± 24 µM.

**Q.** With `CN(C)C(=O)c1cc2cnc(Nc3ccc(N4CCNCC4)cn3)nc2n1C1CCCC1` [Ribociclib, 7-cyclopentyl-2-(5-piperazin-1-yl-pyridin-2-ylamino)-7H-pyrrolo[2,3-d]pyrimidine-6-carboxylic acid dimethylamide] as the compound, how does the IC50 (WM-115) read?
**A.** Its IC50 is > 10 µM.

**Q.** And the IC50 (NCI-H1573)?
**A.** Its IC50 is 0.61 µM.

**Q.** What about the IC50 (KYSE150 [1]) of the same compound?
**A.** Its IC50 is 6.7 µM.

**Q.** And the IC50 (NCI-H2030)?
**A.** Its IC50 is 8.33 µM.

**Q.** And the IC50 (HCC-827 [2])?
**A.** The IC50 was > 10 µM.

**Q.** And the IC50 (MGH049)?
**A.** Its IC50 is 0.54 µM.

**Q.** And the T/C (Hs 944.T; 150 mg/kg qd)?
**A.** Its T/C is 36.

**Q.** What about the T/C (Hs 944.T; 250 mg/kg qd) of the same compound?
**A.** The T/C was 19.

**Q.** What about the IC50 (A549 [3]) of the same compound?
**A.** Its IC50 is > 10 µM.

**Q.** What about the IC50 (OE33 [4]) of the same compound?
**A.** Its IC50 is 0.63 µM.

**Q.** What about the T/C (HBCx-3) of the same compound?
**A.** The T/C was 45.

**Q.** What about the IC50 (NCI-H2228) of the same compound?
**A.** The IC50 was > 10 µM.

**Q.** And the IC50 (PC-14)?
**A.** Its IC50 is 6.98 µM.

**Q.** And the IC50 (NCI-H23 [5])?
**A.** Its IC50 is > 10 µM.

**Q.** What about the IC50 (MDA-MB-415) of the same compound?
**A.** The IC50 was > 10 µM.

**Q.** And the IC50 (SK-MEL-2)?
**A.** Its IC50 is > 10 µM.

**Q.** What about the IC50 (TE-8) of the same compound?
**A.** The IC50 was > 10 µM.

**Q.** What about the IC50 (SK-MEL-5) of the same compound?
**A.** Its IC50 is > 10 µM.

**Q.** And the IC50 (SK-MEL-28)?
**A.** Its IC50 is > 10 µM.

**Q.** What about the “activity against CDK2/cyclin A” value (CDK2/cyclin A) of the same compound?
**A.** Its value is “far less active”.

**Q.** What about the IC50 (HCC-4006) of the same compound?
**A.** Its IC50 is 0.87 µM.

**Q.** What about the IC50 (NCI-H1792) of the same compound?
**A.** The IC50 was 0.61 µM.

**Q.** What about the IC50 (SK-N-SH) of the same compound?
**A.** The IC50 was 9 µM.

**Q.** What about the “effect on pRb and cell cycle” value [6] of the same compound?
**A.** Its value is “dephosphorylation of phosphorylated Rb (pRb) and concomitant G1 cell-cycle arrest”.

**Q.** What about the “area under the concentration-time curve” value (Pharmacokinetics in mice) of the same compound?
**A.** Its value is ~12,500 ng/mL × h.

**Q.** What about the maximum serum concentration (Pharmacokinetics in mice) of the same compound?
**A.** Its maximum serum concentration is ~2700 ng/mL.

**Q.** And the IC50 (NCI-H23 [7])?
**A.** The IC50 was > 10 µM.

**Q.** And the “effect on cell-cycle progression” value (NCI-H2009)?
**A.** The value was “no effect”.

**Q.** What about the IC50 (KELLY) of the same compound?
**A.** Its IC50 is 0.27 µM.

**Q.** What about the tumor response (JeKo-1 xenograft; 75 mg/kg) of the same compound?
**A.** The tumor response was “complete tumor regression”.

**Q.** What about the tumor response (JeKo-1 xenograft; 150 mg/kg) of the same compound?
**A.** Its tumor response is “complete tumor regression”.

**Q.** What about the tumor growth inhibition (JeKo-1 xenograft; rat, in vivo) of the same compound?
**A.** Its tumor growth inhibition is 56%.

**Q.** And the “activity against CDK1/cyclin B” value (CDK1/cyclin B)?
**A.** Its value is “far less active”.

**Q.** What about the IC50 (OE33 [8]) of the same compound?
**A.** Its IC50 is > 10 µM.

**Q.** And the IC50 (SNU-761)?
**A.** The IC50 was 0.67 µM.

**Q.** What about the T/C (HBRX1004) of the same compound?
**A.** Its T/C is 10.

**Q.** And the T/C (HBCx-8)?
**A.** Its T/C is 10.

**Q.** And the IC50 (KYSE30)?
**A.** The IC50 was 4.06 µM.

**Q.** And the IC50 (NCI-H1975)?
**A.** The IC50 was > 10 µM.

**Q.** And the IC50 (A-375)?
**A.** Its IC50 is > 10 µM.

**Q.** And the IC50 (KYSE150 [9])?
**A.** Its IC50 is 0.55 µM.

**Q.** And the IC50 (A549 [10])?
**A.** Its IC50 is 1.2 µM.

**Q.** And the IC50 (HCC-827 [11])?
**A.** Its IC50 is 6.12 µM.
